Test results published in PMC12752568, “Aloe‐Emodin Targeting FOXC2 Disrupts NETs Formation and EMT‐Driven Postoperative Peritoneal Adhesion Through TGF‐β1‐Smad2/3 Pathway” (Advanced Science, 2025).
Residue numbers refer to the chain shown, from its start.

Legend:
Assay type in all cases: binding
[1] = target: T1, Forkhead box protein C2 (FOXC2) (Homo sapiens, UniProt Q99958, S125A); test: BLI (Octet RED […], Ni-NTA sensors)
T1 construct: recombinant His-tagged FOXC2 mutant 1, purified from HEK293T cells
T1 sequence (Q99958 1-501 S125A): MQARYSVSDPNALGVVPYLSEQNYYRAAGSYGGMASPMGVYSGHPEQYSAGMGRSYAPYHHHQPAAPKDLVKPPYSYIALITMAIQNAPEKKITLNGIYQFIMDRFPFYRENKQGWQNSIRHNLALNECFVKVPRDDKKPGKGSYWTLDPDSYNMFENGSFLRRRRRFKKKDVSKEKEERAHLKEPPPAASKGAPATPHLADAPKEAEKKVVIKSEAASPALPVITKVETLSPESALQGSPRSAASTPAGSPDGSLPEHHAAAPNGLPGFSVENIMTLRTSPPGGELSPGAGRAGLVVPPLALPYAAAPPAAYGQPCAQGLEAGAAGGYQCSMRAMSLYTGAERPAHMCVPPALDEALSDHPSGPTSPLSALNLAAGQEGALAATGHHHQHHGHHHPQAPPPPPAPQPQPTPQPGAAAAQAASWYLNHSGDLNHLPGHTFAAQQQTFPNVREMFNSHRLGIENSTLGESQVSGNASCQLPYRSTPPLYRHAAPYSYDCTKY

[2] = target: T2, Forkhead box protein C2 (FOXC2) (Homo sapiens, UniProt Q99958); test: BLI (Octet RED […], Ni-NTA sensors); supported by AE-bead competitive pull-down from PMCs
T2 construct: recombinant His-tagged FOXC2 (WT), purified from HEK293T cells
T2 sequence (Q99958 1-501): T1 sequence (Q99958 1-501 S125A) with A125S

[3] = target: T3, Forkhead box protein C2 (FOXC2) (Homo sapiens, UniProt Q99958, N127A); test: BLI (Octet RED […], Ni-NTA sensors); KD at fit limit
T3 construct: recombinant His-tagged FOXC2 mutant 2, purified from HEK293T cells
T3 sequence (Q99958 1-501 N127A): T1 sequence (Q99958 1-501 S125A) with A125S, N127A

Which results are given for O=C1c2cccc(O)c2C(=O)c2c(O)cc(CO)cc21 [AE, 1,8‐dihydroxy‐3‐hydroxymethyl‐anthraquinone]?
Kd [1]: 13.3 µM; Kd [2]: 8.25 µM; Kd [3]: < 1 pM
